Consider seven compounds from patent US9227971B2, “Pyrazolo[1,5-a]pyrimidine compounds as mTOR inhibitors” (Merck Sharp & Dohme Corp., priority 2010, dated 2016).

Read-outs that look alike come from different tables or passages of the source.

For test [1], the system named is phosphorylated 4E-BP1 Thr37/46 (p4E-BP1 Thr37/46), mTORC1 activity, PC3 cells. Put plainly: mTOR target engagement assay, immunofluorescent cell-based, p4E-BP1 Thr37/46 readout (mTORC1 activity). The following applies: Homo sapiens, read-out: p4E-BP1 Thr37/46 IC50. Put shortly:
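Cell-based immunofluorescence in PC3 cells: serially diluted compounds (0.25% DMSO, 5% FBS) applied for ninety minutes at 37° C before fixation and overnight 4° C staining of p4E-BP1 Thr37/46. Untreated DMSO wells set maximal phosphorylation; IC50 obtained by logistic fitting.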

Test [2] has as its system phosphorylated AKT Ser473 (pAKT S473), mTORC2 activity, PC3 cells. Put plainly: mTOR target engagement assay, immunofluorescent cell-based, pAKT S473 readout (mTORC2 activity). The following applies: Homo sapiens. An outline of the steps:
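After blocking, cells were stained overnight at 4 °C with anti-pAKT S473 antibody, then a fluorescent secondary; inhibition was read as reduced fluorescence intensity.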

Setting [3] is: PC-3, PC3 cells, compound treatment ninety minutes at 37° C.

For the compound `COc1ccc(-c2ccc(-c3cnn4c(N)c(C(C)=O)c([C@@H]5C[C@H]6CC[C@@H](C5)N6C(=O)c5nnc[nH]5)nc34)cn2)cc1` [Compound 1.1.46, 1-(5-((1R,3s,5S)-8-(4H-1,2,4-triazole-3-carbonyl)-8-azabicyclo[3.2.1]octan-3-yl)-7-amino-3-(6-(4-methoxyphenyl)pyridin-3-yl)pyrazolo[1,5-a]pyrimidin-6-yl)ethanone], the IC50 in test [1] (setting [3]) and in test [2] (setting [3]) was 1 to 100 nM throughout.
`CC(=O)c1c([C@@H]2C[C@H]3CC[C@@H](C2)N3C(=O)c2nnc[nH]2)nc2c(-c3ccc(-c4cc(F)cc(F)c4)nc3)cnn2c1N` [Compound 1.1.100, 1-(5-((1R,3r,5S)-8-(4H-1,2,4-triazole-3-carbonyl)-8-azabicyclo[3.2.1]octan-3-yl)-7-amino-3-(6-(3,5-difluorophenyl)pyridin-3-yl)pyrazolo[1,5-a]pyrimidin-6-yl)ethanone]: the IC50 in test [1] (setting [3]) and in test [2] (setting [3]) was 100 to 1000 nM throughout.
Consider `CC(=O)c1c([C@@H]2C[C@H]3CC[C@@H](C2)N3C(=O)c2nnc[nH]2)nc2c(-c3ccc([C@H](C)O)nc3)cnn2c1N` [Compound 7.34, 1-(5-((1R,3s,5S)-8-(4H-1,2,4-triazole-3-carbonyl)-8-azabicyclo[3.2.1]octan-3-yl)-7-amino-3-(6-((S)-1-hydroxyethyl)pyridin-3-yl)pyrazolo[1,5-a]pyrimidin-6-yl)ethanone], for which the IC50 lay within 1 to 100 nM in test [1] (PC-3, Table 7-4, PC3 cells) and 1 to 100 nM in test [2] (PC-3, Table 7-4, PC3 cells).
Take `CC(=O)c1c([C@@H]2C[C@H]3CC[C@@H](C2)N3C(=O)c2nnc[nH]2)nc2c(-c3cnc(-c4cc[nH]n4)c(F)c3)cnn2c1N` [Compound 1.1.110, 1-(5-((1R,3s,5S)-8-(4H-1,2,4-triazole-3-carbonyl)-8-azabicyclo[3.2.1]octan-3-yl)-7-amino-3-(5-fluoro-6-(1H-pyrazol-3-yl)pyridin-3-yl)pyrazolo[1,5-a]pyrimidin-6-yl)ethanone]: the IC50 in test [1] (setting [3]) and in test [2] (setting [3]) was 100 to 1000 nM each time.
As to `COc1cc(F)c(-c2ccc(-c3cnn4c(N)c(C5CC5)c([C@@H]5C[C@H]6CC[C@@H](C5)N6C(=O)c5nnc[nH]5)nc34)cn2)cc1F` [Compound 4.12, ((1R,3a,5S)-3-(7-amino-6-cyclopropyl-3-(6-(2,5-difluoro-4-methoxyphenyl)pyridin-3-yl)pyrazolo[1,5-a]pyrimidin-5-yl)-8-azabicyclo[3.2.1]octan-8-yl)(4H-1,2,4-triazol-3-yl)methanone], the IC50 in test [1] (setting [3]) and in test [2] (setting [3]) was 1 to 100 nM in each case.
Take `CC(=O)c1c([C@@H]2C[C@H]3CC[C@@H](C2)N3C(=O)c2nnc(C)[nH]2)nc2c(-c3ccc(C(N)(C(F)(F)F)C(F)(F)F)nc3)cnn2c1N` [Compound 7.82, 1-(7-amino-3-(6-(2-amino-1,1,1,3,3,3-hexafluoropropan-2-yl)pyridin-3-yl)-5-((1R,3s,5S)-8-(5-methyl-4H-1,2,4-triazole-3-carbonyl)-8-azabicyclo[3.2.1]octan-3-yl)pyrazolo[1,5-a]pyrimidin-6-yl)ethanone]: the IC50 in test [1] (PC-3, PC3 cells) fell in the range of 1000 to 10000 nM; in test [2] (PC-3, PC3 cells), 1000 to 10000 nM.
Regarding `CCCC(O)c1ccc(-c2cnn3c(N)c(S(C)(=O)=O)c([C@@H]4C[C@H]5CC[C@@H](C4)N5C(=O)c4nnc[nH]4)nc23)cn1` (stereo partly drawn) [Compound 7.25, ((1R,3s,5S)-3-(7-amino-3-(6-(1-hydroxybutyl)pyridin-3-yl)-6-(methylsulfonyl)pyrazolo[1,5-a]pyrimidin-5-yl)-8-azabicyclo[3.2.1]octan-8-yl)(4H-1,2,4-triazol-3-yl)methanone], the IC50 fell in the range of 1000 to 10000 nM in test [1] (PC-3, Table 7-2, PC3 cells) and 1000 to 10000 nM in test [2] (PC-3, Table 7-2, PC3 cells).
